Results: patent publication US9371539B2, “DNA encoding ring zinc-finger protein and the use of the DNA in vectors and bacteria and in plants” (Board of Trustees of Michigan State University, priority 2006, dated 2016)

T1: AtTLP9 (Arabidopsis thaliana, UniProt Q9SQU1)
T1 construct: expressed in transfected cells; host or cells: yeast strain AH109
T1 sequence (Q9SQU1 1-380): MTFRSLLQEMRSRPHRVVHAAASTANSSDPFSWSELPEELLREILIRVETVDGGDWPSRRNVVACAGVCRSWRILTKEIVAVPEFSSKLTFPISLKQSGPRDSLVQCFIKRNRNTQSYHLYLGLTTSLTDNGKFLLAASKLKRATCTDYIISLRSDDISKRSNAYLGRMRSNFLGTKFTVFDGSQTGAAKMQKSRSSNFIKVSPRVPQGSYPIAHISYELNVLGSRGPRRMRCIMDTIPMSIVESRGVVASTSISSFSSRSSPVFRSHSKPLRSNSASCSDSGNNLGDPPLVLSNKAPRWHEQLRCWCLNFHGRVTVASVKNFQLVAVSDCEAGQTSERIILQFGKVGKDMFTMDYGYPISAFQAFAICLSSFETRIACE


Tests used:
Arabidopsis thaliana [1] = experiment: Effect of ABA on early seedling growth and cotyledon opening; assay type: in vivo
Method: (§1) Arabidopsis thaliana, ecotype Columbia (Col), was used as the wild-type plant for phenotypic assays for comparison to transgenic 35S::XERICO Arabidopsis thaliana, plants in these experiments. Unless noted otherwise, plants were grown under sterile conditions on MS nutrient agar media (1×MS basal medium (Sigma, stock number M5519) with 2% sucrose and 0.3% phytagel (Sigma) containing 2% sucrose or on soil in a growth chamber (16 h light/8 h dark) at 23° C., after stratification. For monitoring of hypocotyl elongation and root growth with response salt/osmotic stress, a minimum of 20 seeds were sowed on MS nutrient agar media containing specified treatments, following which the plates were held in the vertical position for 7 days. For testing the effects of ABA on germination and early seedling growth, seeds were grown horizontally. For abiotic stress treatments, wild-type seedlings were grown on MS nutrient agar media containing 2% sucrose for 10-days and then treated the stresses indicated in FIG. 1, for up to 24 hour without a treatment control. Samples were collected at the indicated time and frozen immediately in liquid N2 and were stored at −80° C. until use. Experiments were performed in triplicates and repeated at least three times.
(§2) Since the hypersensitivity to salt or osmotic stress was the most prominent phenotype of the three independent T3 homozygous lines of 35S::XERICO plants, the functional relationship of the gene with ABA, a plant stress hormone involved in salt and drought stress adaptation, was investigated. […] Although 35S::XERICO plants germinated slightly later than wild-type even in the absence of exogenous ABA (FIG. 3c), germination was further delayed following ABA treatment. At 0.1 μM of ABA, 13% of 35S::XERICO plants were germinated 1.5 day after sowing, while 43% of wild-type seeds germinated. […] Germination was scored by the emergence of a radicle (>1 mm). The number of ‘cotyledon opening’ of seedlings at five days after sowing were counted and recorded. […]

AtNCED3 = experiment: RNA gel blot analysis of response to ABA treatment; assay type: in vivo, Arabidopsis thaliana; settings: 10 μM ABA up to 24 hour; both wild-type and 35S::XERICO plants
Method: (a) RNA gel blot analysis showing a response to ABA. Wild-type (WT) and 35S::XERICO plants were grown on MS nutrient agar media for 10 days and then treated with 10 μM of ABA for up to 24 hour. Total RNA was isolated at the indicated times after treatment. Each lane was loaded with 10 μg total RNA. The RNA blot was hybridized with [^32P]-labeled gene specific probes for AtNCED3 (SEQ ID NO:452), AtCYP707A2 (SEQ ID NO:428) and RD29a (SEQ ID NO:386). Probing with Actin 8 (SEQ ID NO:455) was used as a RNA loading control. (b) RNA gel blot analysis in response to drought treatment. Wild-type (WT) and 35S::XERICO plants were grown on MS medium for 14 days and then dehydrated (see, EXAMPLE I).
Total RNA was extracted using the Trizol reagent method (Gibco-BRL, Gaithersburg, Md.). For northern blot analysis, 10 μg of total RNA from each sample was denatured and separated using a 1% agarose-formaldehyde gel. RNA was transferred onto a Hybond-N+ membrane (Stratagene, La Jolla, Calif.) by capillary action. Gene-specific probes were prepared by PCR and labeled with [^32P]-dCTP using a Prime-it II Random Primer Labeling kit (Stratagene, La Jolla, Calif.). […]

Arabidopsis thaliana [2] = experiment: Effect of ABA on seed germination (radicle emergence >1 mm); assay type: in vivo
Method: as §1, §2

XERICO = experiment: Expression of XERICO upon ABA treatment; assay type: in vivo, Arabidopsis thaliana; settings: ABA 10 μM; up to 3-hours post-treatment
Method: Total RNA was extracted using the Trizol reagent method (Gibco-BRL, Gaithersburg, Md.). For northern blot analysis, 10 μg of total RNA from each sample was denatured and separated using a 1% agarose-formaldehyde gel. RNA was transferred onto a Hybond-N+ membrane (Stratagene, La Jolla, Calif.) by capillary action. Gene-specific probes were prepared by PCR and labeled with [^32P]-dCTP using a Prime-it II Random Primer Labeling kit (Stratagene, La Jolla, Calif.). Primers used in this analysis were following: XERICO (forward; SEQ ID NO:439, 5′-[…]-3 and reverse; SEQ ID NO:440, 5′-[…]-3′), AtNCED3 (forward, SEQ ID NO:441, 5′-[…]-3′ and reverse; SEQ ID NO:442, 5′-[…]-3′), AtCYP707A2 (forward; SEQ ID NO:443, 5′-[…]-3′ and reverse; SEQ ID NO:444, 5′-[…]-3′), RD29a (forward; SEQ ID NO:445, 5′-[…]-3′ and reverse; SEQ ID NO:446, 5′-[…]-3′), and Actin 8 (forward; SEQ ID NO:447, 5′-[…]-3′ and reverse; SEQ ID […], 5′-[…]-3′). Hybridization was carried out using ULTRAhyb® according to the manufacturer's instructions (Ambion, Austin, Tex.), and a Kodak Biomax film (Sigma) was exposed to the blot. An Actin 8 gene (SEQ ID NO:457) or ethidium bromide-stained ribosomal RNA was used as a loading control.

AtUBC8 = biological target: T2, AtUBC8 (Arabidopsis thaliana, UniProt P35131); experiment: Yeast two-hybrid screening; assay type: binding; settings: yeast AH109; truncated XERICO without transmembrane domain as bait
T2 construct: expressed in transfected cells; host or cells: yeast strain AH109
Method: (§3) Two-hybrid screening was performed using the BD Matchmaker™ library construction and screening kit (Clonetech, Palo Alto, Calif.); pGADT7 was used as the base for a GAL4 activation domain (AD) vector and pGBKT7 was used for a GAL4 DNA-binding domain (DNA-BD) vector (pGADT7 and pGBKT7 were obtained from “BD Matchmaker Library Construction & Screening Kits” (Clontech, Palo Alto, Calif.)). The yeast strain AH109 (leu^−, trp^−, Ade^−, his^−) (obtained from “BD Matchmaker Library Construction & Screening Kits (Clontech, Palo Alto, Calif.)) with chromosomally integrated reporter genes lacZ and HIS under the control of the GAL1 promoter activated by the GAL4 transcription factor was used to host all constructs. Truncated XERICO cDNA without a transmembrane domain (SEQ ID NO: 451) was amplified by PCR using primers 5′-[…]-3′ (forward; SEQ ID NO:449) and 5′-[…]-3′ (reverse; SEQ ID NO:450) designed to contain EcoRI and PstI site, respectively. The amplified PCR product was digested with EcoRI and PstI, and subcloned into pGBKT7 as a fusion to the DNA binding domain of GAL4 and verified by sequencing. The pGBKT7/XERICO vector was used as a bait to screen an Arabidopsis thaliana cDNA library in pGADT7 as a fusion to the activation domain of GAL4. […]

AtTLP9 = biological target: T1, AtTLP9; experiment: Yeast two-hybrid screening; assay type: binding; settings: yeast AH109; truncated XERICO without transmembrane domain as bait
Method: as §3

T2 sequence (P35131 whole entry, the tested form may be a part): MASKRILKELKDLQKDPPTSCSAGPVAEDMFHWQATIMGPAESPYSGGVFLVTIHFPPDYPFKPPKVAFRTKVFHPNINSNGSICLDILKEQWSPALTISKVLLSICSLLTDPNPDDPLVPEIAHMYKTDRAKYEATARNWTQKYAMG

Molecule | early seedling growth (Arabidopsis thaliana [1]; 0.1 μM exogenous ABA, three independent lines of 35S::XERICO plants, compared to wild-type) | cotyledon opening (Arabidopsis thaliana [1]; 1 μM ABA, five days after sowing, 35S::XERICO plants) | plants with opened cotyledons (Arabidopsis thaliana [1]; 1 μM ABA, five days after sowing, wild-type plants) | transcripts of AtNCED3 (AtNCED3) | plants germinated (Arabidopsis thaliana [2]; 0.1 μM ABA, 1.5 day after sowing, 35S::XERICO plants) [%] | seeds germinated (Arabidopsis thaliana [2]; 0.1 μM ABA, 1.5 day after sowing, wild-type seeds) [%] | plants failed to germinate (Arabidopsis thaliana [2]; 1.0 μM ABA, prolonged incubation, 35S::XERICO plants) | expression of XERICO (XERICO) | interaction with AtUBC8 (AtUBC8) | interaction with AtTLP9 (AtTLP9)
CC1=CC(=O)CC(C)(C)[C@@]1(O)/C=C/C(C)=C\C(=O)O [ABA, abscisic acid] | arrested immediately after germination | did not develop a cotyledon | approximately 80% | clearly increased | 13 | 43 | more than 20% | no significant changes | – | –
XERICO: protein encoded by Arabidopsis thaliana gene AT2G04240; 162 amino acids, RING-H2 zinc-finger motif (protein) MGLSSLPGPSEGMLCVILVNTALSISIVKGIVRSFLGIVGISLSPSSSSPSSVTVSSENSSTSESFDFRVCQPESYLEEFRNRTPTLRFESLCRCKKQADNECSVCLSKFQGDSEINKLKCGHLFHKTCLEKWIDYWNITCPLCRTPLVVVPEDHQLSSNVW | – | – | – | – | – | – | – | – | interacts | interacts
